The values below come from patent US7084137B2, “Thiazines and thiazoles as agents for protecting materials” (Bayer Aktiengesellschaft, priority 2001, dated 2006).

SMILES strings stand for the structures. In brackets after ≈: the same amount, converted by molar mass.

The test system of one experiment is Bacillus subtilis. In words: Minimum inhibitory concentration (MIC) against bacteria on nutrient agar. The format is cell-based. The following applies: 3 days of incubation at 28° C., 60 to 70% relative atmospheric humidity; for MIC: Bacillus subtilis, 72 h. The protocol:
The active compounds according to the invention are in each case added, in concentrations of from 0.1 mg/ml to 5000 mg/ml, to a chemically defined nutrient agar. The MIC is determined after 3 days of incubation at 28° C. and 60 to 70% relative atmospheric humidity.

Another experiment has as its system Aspergillus niger. In words: Minimum inhibitory concentration (MIC) against fungi on malt extract agar. It is filed as cell-based. The conditions noted are these: 2 weeks of incubation at 28° C., 60 to 70% relative atmospheric humidity; for MIC: Aspergillus niger, 336 h. The protocol:
(§1) The active compounds according to the invention are in each case added, in concentrations of from 0.1 mg/l to 5000 mg/l, to an agar which is prepared using malt extract. The MIC is determined after 2 weeks of incubation at 28° C. and 60 to 70% relative atmospheric humidity.

In the next experiment the test system is Chaetomium globosum. The description is as above. It is filed as cell-based. The conditions noted are these: 2 weeks of incubation at 28° C., 60 to 70% relative atmospheric humidity; for MIC: Chaetomium globosum, 336 h. Here is the method: as §1
A further experiment deals with Penicillium brevicaule. The description is as above. The format is cell-based. The following applies: 2 weeks of incubation at 28° C., 60 to 70% relative atmospheric humidity; for MIC: Penicillium, 336 h. Here is the method: as §1
Experiment [1] relates to mould fungi (Alternaria tenius, Aspergillus flavus, Aspergillus niger, Aspergillus ustus, Cindosporum herbarum, Paecilomyces variotii, Penicillium citrium …). In words: Test of dispersion coatings for resistance to mould. The following applies: coatings according to recipe A containing 1.5% (based on solids) of compound; even after leaching out and wind tunnel exposure; 2–3 weeks storage. The protocol: To test dispersion coatings for resistance to mould, the following procedure is adopted:
The paint to be tested is applied to both sides of a suitable base. To obtain results which are close to practice, some of the test specimens are leached out with running water (24 h, 20° C.) before the test for mould resistance; others are treated with a current of warm fresh air (7 days, 40° C.).
The samples prepared in this way are then placed on an agar nutrient medium, and both samples and nutrient medium are contaminated with fungal spores. After 2–3 weeks storage (29±1° C., 80–90% rel. atmospheric humidity), the samples are compared.
The coating is considered to be permanently mould-resistant if the sample remains free from fungus or at most a slightly border infestation can be detected.
For the contamination, fungal spores of the following mould fungi are used, which are known as paint destroyers or are frequently encountered on coatings: • Alternaria tenius • Aspergillus flavus • Aspergillus niger • Aspergillus ustus • Cindosporum herbarum • Paecilomyces variotii • Penicillium citrium • Aureobasidium pullulans • Stachybotrys chartarum
Recipe A: Exterior dispersion paint based on Acroal 290 D (styrene acrylate)

Broadly, the MIC is the lowest concentration that inhibits growth of the organism. Take `C=CCSC1=NCCS1` [CAS No. 3571-74-2, 2-[allylsulfanyl]-4,5-dihydro-1,3-thiazole]: in the experiment on Bacillus subtilis, the MIC was 200 µg/mL (≈ 1260 µM).

On to `Clc1ccc(SC2=NCCCS2)cc1` [CAS No. 10554-28-6, 2-[(4-chlorophenyl)sulfanyl]-5,6-dihydro-4H-1,3-thiazine], for which the MIC with Aspergillus niger is below 400 µg/mL; with Chaetomium globosum, below 200 µg/mL; in the experiment with Penicillium brevicaule, below 200 µg/mL.

On to `Clc1ccccc1SC1=NCCCS1` [CAS No. 55545-14-7, 2-[(2-chlorophenyl)sulfanyl]-5,6-dihydro-4H-1,3-thiazine], for which the MIC against Aspergillus niger, in the experiment with Chaetomium globosum and in the experiment on Penicillium brevicaule was below 200 µg/mL in each case.

On to `c1ccc(SC2=NCCCS2)cc1` [CAS No. 73122-32-4, 2-(phenylsulfanyl)-5,6-dihydro-4H-1,3-thiazine], for which the MIC against Bacillus subtilis was below 100 µg/mL; against Aspergillus niger, below 300 µg/mL; in the experiment with Chaetomium globosum it was below 200 µg/mL; with Penicillium brevicaule, below 200 µg/mL.

Consider `Clc1cccc(SC2=NCCCS2)c1` [CAS No. 73122-33-5, 2-[(3-chlorophenyl)sulfanyl]-5,6-dihydro4H-1,3-thiazine], for which the values for the MIC against Aspergillus niger, in the experiment with Chaetomium globosum and in the experiment on Penicillium brevicaule were 200 µg/mL (≈ 820 µM), below 200 µg/mL and below 200 µg/mL, respectively.

On to `Clc1ccc(SC2=NCCCS2)cc1Cl` [CAS No. 73122-34-6, 2-[(3,4-dichlorophenyl)sulfanyl]-5,6-dihydro-4H-1,3-thiazine], for which the MIC in the experiment on Aspergillus niger is 400 µg/mL (≈ 1440 µM); in the experiment with Chaetomium globosum it was below 100 µg/mL; in the experiment with Penicillium brevicaule, below 100 µg/mL.

In the experiment on Bacillus subtilis, `Clc1ccc(SC2=NCCCS2)c(Cl)c1` [CAS No. 73122-35-7, 2-[(2,4-dichlorophenyl)sulfanyl]-5,6-dihydro-4H-1,3-thiazine] yielded an MIC below 40 µg/mL.

In turn, `Clc1cc(Cl)cc(SC2=NCCCS2)c1` [CAS No. 73122-37-9, 2-[(3,5-dichlorophenyl)sulfanyl]-5,6-dihydro-4H-1,3-thiazine] had a minimum inhibitory concentration (MIC) against Bacillus subtilis of 100 µg/mL (≈ 359 µM).

`Brc1ccc(SC2=NCCCS2)cc1` [CAS No. 73122-41-5, 2-[(4-bromophenyl)sulfanyl]-5,6-dihydro-4H-1,3-thiazine]: the MIC against Aspergillus niger was below 300 µg/mL; with Chaetomium globosum, below 200 µg/mL; in the experiment on Penicillium brevicaule, below 200 µg/mL.

Turning to `Fc1ccc(SC2=NCCCS2)cc1` [CAS No. 73122-42-6, 2-[(4-fluorophenyl)sulfanyl]-5,6-dihydro-4H-1,3-thiazine], the MIC against Aspergillus niger was 100 µg/mL (≈ 440 µM); in the experiment on Chaetomium globosum it was below 100 µg/mL; against Penicillium brevicaule, below 50 µg/mL.

Turning to `Cc1ccc(SC2=NCCCS2)cc1` [CAS No. 73122-44-8, 2-[(4-methylphenyl)sulfanyl]-5,6-dihydro4H-1,3-thiazine], the MIC was below 250 µg/mL against Aspergillus niger, below 200 µg/mL in the experiment with Chaetomium globosum and below 100 µg/mL in the experiment on Penicillium brevicaule.

Take `Cc1cccc(SC2=NCCCS2)c1` [CAS No. 73122-45-9, 2-[(3-methylphenyl)sulfanyl]-5,6-dihydro4H-1,3-thiazine]: the MIC in the experiment with Aspergillus niger was below 200 µg/mL; against Chaetomium globosum, below 100 µg/mL; against Penicillium brevicaule, below 100 µg/mL.

For `Cc1ccccc1SC1=NCCCS1` [CAS No. 73122-46-0, 2-[(2-methylphenyl)sulfanyl]-5,6-dihydro-4H-1,3-thiazine], the MIC against Aspergillus niger is 200 µg/mL (≈ 895 µM); against Chaetomium globosum it was below 200 µg/mL; against Penicillium brevicaule, 100 µg/mL (≈ 448 µM).

Regarding `CC(C)(C)c1ccc(SC2=NCCCS2)cc1` [CAS No. 73122-48-2, 2-[(4-tert-butylphenyl)sulfanyl]-5,6-dihydro-4H-1,3-thiazine], the values for the MIC in the experiment on Aspergillus niger, with Chaetomium globosum and in the experiment with Penicillium brevicaule were 100 µg/mL (≈ 377 µM), below 100 µg/mL and below 100 µg/mL, respectively.

`COc1ccc(SC2=NCCCS2)cc1` [CAS No. 73122-49-3, 2-[(4-methoxyphenyl)sulfanyl]-5,6-dihydro-4H-1,3-thiazine]: the MIC is below 400 µg/mL in the experiment on Aspergillus niger, below 400 µg/mL against Chaetomium globosum and below 300 µg/mL against Penicillium brevicaule.

Turning to `CN(C)c1ccc(SC2=NCCCS2)cc1` [CAS No. 73122-51-7, 4-(5,6-dihydro-4H-1,3-thiazin-2-ylsulfanyl)-N,N-dimethylaniline], the MIC against Aspergillus niger is 200 µg/mL (≈ 792 µM); in the experiment on Chaetomium globosum, below 100 µg/mL; in the experiment with Penicillium brevicaule, 100 µg/mL (≈ 396 µM).

As for `O=[N+]([O-])c1ccc(SC2=NCCCS2)cc1` [CAS No. 73122-52-8, 2-[(4-nitrophenyl)sulfanyl]-5,6-dihydro-4H-1,3-thiazine], the figures for the MIC against Aspergillus niger, against Chaetomium globosum and in the experiment with Penicillium brevicaule were below 150 µg/mL, below 100 µg/mL and below 200 µg/mL, respectively.

In the case of `Clc1ccc(SC2=NCCS2)cc1` [CAS No. 103482-92-4, 2-[4-chlorophenylsulfanyl]-4,5-dihydro-1,3-thiazole], the MIC with Chaetomium globosum was below 200 µg/mL; against Penicillium brevicaule, 200 µg/mL (≈ 870 µM).

With `Clc1cccc(SC2=NCCS2)c1` [CAS No. 103482-93-5, 2-[3-chlorophenylsulfanyl]-4,5-dihydro-1,3-thiazole], the MIC against Chaetomium globosum is below 200 µg/mL; against Penicillium brevicaule, 200 µg/mL (≈ 870 µM).

As for `O=[N+]([O-])c1ccc(SC2=NCCS2)cc1` [CAS No. 103482-99-1, 2-[4-nitrophenylsulfanyl]-4,5-dihydro-1,3-thiazole], the MIC against Chaetomium globosum and in the experiment on Penicillium brevicaule was below 200 µg/mL each time.

With `COC(=O)C1CSC(SC(C)C)=N1` (stereo not drawn) [Example 8], the “Minimum inhibitory concentration, Bacillus subtilis” value in the experiment with Bacillus subtilis is on record as below 200 ppm.

Turning to `COC(=O)C1CSC(Sc2cccc(Cl)c2)=N1` (stereo not drawn) [Example 18], in the experiment with Chaetomium globosum, the “Minimum inhibitory concentration, Chaetomium globosum” value turned out to be 200 ppm.

For the molecule `c1ccc(CSC2=NCCCS2)cc1` [Example 22], the “Minimum inhibitory concentration, Bacillus subtilis” value in the experiment on Bacillus subtilis is listed as 100 ppm.

For `COc1cccc(SC2=NCCCS2)c1` [Example 25], the “Mould resistance of coating” value in experiment [1] was “mould-resistant”.

Take `COc1ccccc1SC1=NCCCS1` [Example 26]: the “Minimum inhibitory concentration, Chaetomium globosum” value in the experiment on Chaetomium globosum was determined as 200 ppm. The “Minimum inhibitory concentration, Penicillium brevicaule” value with Penicillium brevicaule was found to be 100 ppm.

As to `COc1ccccc1SC1=NCCCS1` [Example 36], the “Minimum inhibitory concentration, Aspergillus niger” value with Aspergillus niger came out at 100 ppm. The “Minimum inhibitory concentration, Chaetomium globosum” value in the experiment with Chaetomium globosum was determined as 100 ppm. In the experiment with Penicillium brevicaule, the “Minimum inhibitory concentration, Penicillium brevicaule” value amounted to 100 ppm.

`Cc1cccc(C)c1SC1=NCCCS1` [Example 37]: in the experiment on Chaetomium globosum, the “Minimum inhibitory concentration, Chaetomium globosum” value is reported as below 200 ppm. Further, in the experiment on Penicillium brevicaule, the “Minimum inhibitory concentration, Penicillium brevicaule” value was found to be 400 ppm.

For the molecule `Fc1cccc(SC2=NCCCS2)c1` [Example 39], the “Minimum inhibitory concentration, Aspergillus niger” value in the experiment on Aspergillus niger is reported as 100 ppm. Also, the “Minimum inhibitory concentration, Chaetomium globosum” value with Chaetomium globosum is reported as below 100 ppm. Besides, in the experiment on Penicillium brevicaule, the “Minimum inhibitory concentration, Penicillium brevicaule” value is below 100 ppm.

`FC(F)(F)c1ccc(SC2=NCCCS2)cc1` [Example 40]: the “Minimum inhibitory concentration, Aspergillus niger” value in the experiment on Aspergillus niger is given as below 250 ppm. Further, in the experiment on Chaetomium globosum, the “Minimum inhibitory concentration, Chaetomium globosum” value is below 100 ppm. Also, the “Minimum inhibitory concentration, Penicillium brevicaule” value in the experiment with Penicillium brevicaule is given as below 100 ppm.

For `Oc1cccc(SC2=NCCCS2)c1` [Example 41], in the experiment with Chaetomium globosum, the “Minimum inhibitory concentration, Chaetomium globosum” value is 200 ppm. Also, the “Minimum inhibitory concentration, Penicillium brevicaule” value in the experiment on Penicillium brevicaule is recorded as 100 ppm.

Take `COc1ccc(SC2=NCCCS2)cc1OC` [Example 42]: the “Minimum inhibitory concentration, Aspergillus niger” value in the experiment with Aspergillus niger is listed as 500 ppm. Also, the “Minimum inhibitory concentration, Chaetomium globosum” value in the experiment with Chaetomium globosum was found to be 100 ppm. The “Minimum inhibitory concentration, Penicillium brevicaule” value in the experiment on Penicillium brevicaule is below 200 ppm.

Take `CCc1ccc(SC2=NCCCS2)cc1` [Example 44]: the “Minimum inhibitory concentration, Aspergillus niger” value in the experiment on Aspergillus niger was 100 ppm. In the experiment with Chaetomium globosum, the “Minimum inhibitory concentration, Chaetomium globosum” value is on record as below 100 ppm. For the same molecule, the “Minimum inhibitory concentration, Penicillium brevicaule” value in the experiment on Penicillium brevicaule is on record as below 100 ppm.

In the case of `c1ccc(Oc2ccc(SC3=NCCCS3)cc2)cc1` [Example 45], the “Minimum inhibitory concentration, Chaetomium globosum” value in the experiment with Chaetomium globosum is on record as below 100 ppm. Besides, the “Minimum inhibitory concentration, Penicillium brevicaule” value in the experiment on Penicillium brevicaule came out at 100 ppm.

`c1ccc(-c2cccc(SC3=NCCCS3)c2)cc1` [Example 48]: in the experiment with Chaetomium globosum, the “Minimum inhibitory concentration, Chaetomium globosum” value is recorded as below 100 ppm. Moreover, in the experiment with Penicillium brevicaule, the “Minimum inhibitory concentration, Penicillium brevicaule” value is 200 ppm.

With `c1cc(C2CC2)ccc1SC1=NCCCS1` [Example 49], in the experiment with Aspergillus niger, the “Minimum inhibitory concentration, Aspergillus niger” value is on record as 100 ppm. The “Minimum inhibitory concentration, Chaetomium globosum” value in the experiment with Chaetomium globosum is listed as below 100 ppm. Besides, the “Minimum inhibitory concentration, Penicillium brevicaule” value in the experiment with Penicillium brevicaule was below 100 ppm.
